# According to patent publication US9695153B2, “Oligooxopiperazines for p53 reactivation” (New York University, priority 2013, dated 2017):
# Tests used:
# [1] = system: IMR90 (human normal fibroblasts); assay: Cell proliferation (MTT); format: cell-based; settings: for efficacy of cis-platinum on proliferation, combination: IMR90 fibroblasts, 10 μM with cis-platinum 10 μM; for cell proliferation, single-agent: human normal IMR90 fibroblasts, 10 μM
# Protocol: (§1) Cell proliferation was assessed using the MTT reagent (Roche Molecular Biochemicals, Nutley, N.J.) to detect metabolic active cells. Absorbance was measured at 570 nm in the Spectra Max 190 ELISA reader (Molecular Devices, Sunnyvale, Calif.) after overnight incubation. For clonogenic survival, 200 cells per well were plated in complete growth media and allowed to grow until visible colonies were formed (14 days). Cell colonies were fixed with cold methanol, stained with 0.25% crystal violet in 25% methanol, washed, and air dried. For apoptosis, cells were harvested, washed with cold PBS, and co-stained with Annexin V and propidium iodide according to the manufacturer's protocol (ApoAlert Annexin V-FITC Apoptosis Kit; Clontech). Apoptotic cells were analyzed using BD FACS Calibur (BD Biosciences Corporation, Franklin Lakes, N.J.) at The Ohio State University Comprehensive Cancer Center Analytical Cytometry Core.
# UMSCC74A cells = assay: Cell proliferation (MTT); format: cell-based, human; settings: for cell proliferation, single-agent: HPV-negative UMSCC74A, 10 μM; for efficacy of cis-platinum on proliferation, combination: UMSCC74A, 10 μM with cis-platinum 10 μM
# Protocol: as §1
# UMSCC47 cells [2] = assay: Cell proliferation (MTT); format: cell-based, human; settings: for cell proliferation, single-agent: UMSCC47, 10 μM; for cell proliferation, in combination with cis-platinum: UMSCC47, 10 μM with cis-platinum 10 μM
# Protocol: as §1
# UMSCC47 cells [3] = assay: Tumorsphere formation; format: cell-based, human; settings: UMSCC47, 10 μM, 7 days, vs vehicle
# Protocol: Cells were harvested and seeded in a serum-free defined medium consisting of KSF medium supplemented with epidermal growth factor, basic fibroblast growth factor, insulin, and hydrocortisone in low-attachment plates (Corning Incorporated, Corning, N.Y.) for tumorspheres. Tumorsphere formation efficiency was calculated as the number of tumorspheres (≧50 μm in diameter) formed in 7 days divided by the original number of cells seeded. Tumorsphere diameter was measured using NIS-Elements software.
# [4] = molecular target: T1, HPV16 E6-p300 association in UMSCC47 cells (Homo sapiens, UniProt Q09472); assay: Immunoprecipitation, HPV16 E6-p300 association; format: cell-based; settings: UMSCC47, 10 μM, 24 hours
# T1 construct: endogenous in cells; host or cells: UMSCC47 (HPV16-positive HNSCC cells)
# T1 sequence (Q09472 whole entry): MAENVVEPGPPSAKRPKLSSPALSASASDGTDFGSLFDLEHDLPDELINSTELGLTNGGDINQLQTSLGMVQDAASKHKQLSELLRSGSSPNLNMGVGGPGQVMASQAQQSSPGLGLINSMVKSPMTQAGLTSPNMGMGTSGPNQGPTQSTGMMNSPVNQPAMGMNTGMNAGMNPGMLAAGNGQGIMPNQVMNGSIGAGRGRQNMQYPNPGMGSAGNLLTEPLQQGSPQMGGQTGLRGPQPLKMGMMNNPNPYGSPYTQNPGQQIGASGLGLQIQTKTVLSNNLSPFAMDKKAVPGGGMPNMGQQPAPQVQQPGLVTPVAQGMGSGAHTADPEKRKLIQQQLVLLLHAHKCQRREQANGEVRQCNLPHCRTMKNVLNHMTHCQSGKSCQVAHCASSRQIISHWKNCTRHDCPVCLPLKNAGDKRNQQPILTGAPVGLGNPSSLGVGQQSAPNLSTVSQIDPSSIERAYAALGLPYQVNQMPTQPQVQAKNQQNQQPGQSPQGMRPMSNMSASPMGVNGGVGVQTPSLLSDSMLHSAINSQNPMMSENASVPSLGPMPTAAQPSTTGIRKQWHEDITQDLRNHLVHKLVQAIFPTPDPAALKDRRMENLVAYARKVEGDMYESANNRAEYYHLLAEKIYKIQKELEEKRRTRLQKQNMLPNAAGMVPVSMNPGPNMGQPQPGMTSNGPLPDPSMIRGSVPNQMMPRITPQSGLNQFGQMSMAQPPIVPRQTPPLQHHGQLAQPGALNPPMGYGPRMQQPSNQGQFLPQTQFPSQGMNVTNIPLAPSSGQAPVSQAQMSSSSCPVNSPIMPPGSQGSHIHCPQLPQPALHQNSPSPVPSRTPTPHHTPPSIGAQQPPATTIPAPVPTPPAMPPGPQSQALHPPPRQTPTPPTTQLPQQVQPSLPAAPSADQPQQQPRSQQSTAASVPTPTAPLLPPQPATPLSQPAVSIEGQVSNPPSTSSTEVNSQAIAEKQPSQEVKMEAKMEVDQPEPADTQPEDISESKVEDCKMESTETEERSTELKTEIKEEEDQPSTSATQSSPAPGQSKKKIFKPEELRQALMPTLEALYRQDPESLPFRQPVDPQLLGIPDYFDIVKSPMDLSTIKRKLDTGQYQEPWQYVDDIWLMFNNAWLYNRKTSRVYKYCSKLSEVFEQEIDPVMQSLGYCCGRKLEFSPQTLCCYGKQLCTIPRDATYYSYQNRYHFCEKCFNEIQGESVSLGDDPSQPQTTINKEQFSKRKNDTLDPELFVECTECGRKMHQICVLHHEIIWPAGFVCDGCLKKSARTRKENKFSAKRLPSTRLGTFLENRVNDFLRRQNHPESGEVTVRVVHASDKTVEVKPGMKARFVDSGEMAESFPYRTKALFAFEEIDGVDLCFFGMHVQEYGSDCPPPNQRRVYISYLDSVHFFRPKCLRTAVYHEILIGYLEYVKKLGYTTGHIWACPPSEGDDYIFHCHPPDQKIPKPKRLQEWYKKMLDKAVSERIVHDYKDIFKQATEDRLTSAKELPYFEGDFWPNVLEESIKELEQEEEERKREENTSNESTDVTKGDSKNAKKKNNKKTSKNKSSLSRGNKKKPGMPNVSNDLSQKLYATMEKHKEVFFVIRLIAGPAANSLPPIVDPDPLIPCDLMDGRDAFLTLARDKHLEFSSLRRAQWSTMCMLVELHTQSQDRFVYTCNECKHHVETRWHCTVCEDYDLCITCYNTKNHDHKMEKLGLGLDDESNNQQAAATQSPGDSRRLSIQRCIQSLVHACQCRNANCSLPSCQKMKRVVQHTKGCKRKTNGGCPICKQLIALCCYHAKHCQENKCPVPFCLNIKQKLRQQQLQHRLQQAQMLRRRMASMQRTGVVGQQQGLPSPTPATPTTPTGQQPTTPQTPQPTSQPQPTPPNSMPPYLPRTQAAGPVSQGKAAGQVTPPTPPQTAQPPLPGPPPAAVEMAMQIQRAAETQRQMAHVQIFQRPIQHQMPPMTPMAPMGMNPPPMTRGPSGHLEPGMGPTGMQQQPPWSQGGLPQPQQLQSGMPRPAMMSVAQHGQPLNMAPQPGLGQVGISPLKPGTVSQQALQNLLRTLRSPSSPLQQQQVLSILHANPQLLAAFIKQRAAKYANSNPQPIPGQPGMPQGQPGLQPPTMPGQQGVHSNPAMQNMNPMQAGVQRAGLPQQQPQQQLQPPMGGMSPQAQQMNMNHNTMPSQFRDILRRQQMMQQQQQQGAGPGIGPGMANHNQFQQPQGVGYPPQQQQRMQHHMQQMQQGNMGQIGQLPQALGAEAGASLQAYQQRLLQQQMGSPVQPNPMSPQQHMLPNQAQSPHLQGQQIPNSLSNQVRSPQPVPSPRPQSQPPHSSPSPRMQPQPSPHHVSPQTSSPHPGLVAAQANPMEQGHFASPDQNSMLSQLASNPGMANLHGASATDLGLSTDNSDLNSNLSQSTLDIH
# Protocol: Cells were lysed with NP buffer [50 mM Tris (pH 8.0), 150 mM NaCl, 0.5% deoxycholate, 0.1% SDS, and 1.0% NP-40] containing 1× Protease Inhibitor Cocktail (Roche, Switzerland) at 4° C. with gentle rocking for 15 min. The supernatant was pre-cleared to block nonspecific binding with 50 μL protein A/G Agarose beads (Pierce Biotechnology) that had been pre-washed with NP buffer before use. Equal amounts of anti-E6 antibody (Abcam), anti-p300 antibody (Millipore), or IgG antibody (Cell Signaling) were added to the respective samples. After 4 hours incubation at 4° C., 50 μL pre-washed protein A/G-agarose beads were added to each tube and immunoprecipitation was performed by rocking overnight at 4° C. The immunoprecipitated complexes were washed with NP buffer and then eluted using 2×SDS sample buffer. Eluted sample and 10% of input were resolved by SDS-PAGE for Western blot analysis with anti-E6, anti-p300, or anti-V5 antibodies.
# UMSCC47 cells [5] = assay: Clonogenic survival; format: cell-based, human; settings: UMSCC47, 10 μM, 14 days, vs vehicle
# Protocol: as §1
# [6] = system: p300, p53, p21, miR-34a, miR-200c expression in UMSCC74A cells; assay: Quantitative real-time PCR (TaqMan); format: cell-based, human; settings: 10 μM, 24 hours
# Protocol: (§2) Cells were extracted for total RNA using the TRIzol® reagent (Invitrogen) or TaqMan PreAmp Cells-to-CT kit (Applied Biosystems). Expression of p300, p53, p21, miR-34a and miR-200c were determined using the Applied Biosystems 7900HT Fast Real-Time PCR System with validated TaqMan gene expression assays (Applied Biosystems). p53, p300, and p21 expression were normalized to GADPH and miR-34a and miR-200c expression were normalized to RNU44 using the ΔΔCt method.
# [7] = system: p300, p53, p21, miR-34a, miR-200c expression in UMSCC47 cells; assay: Quantitative real-time PCR (TaqMan); format: cell-based, human; settings: UMSCC47, 10 μM, 24 hours
# Protocol: as §2
# UMSCC47 cells [8] = assay: Apoptosis, Annexin V FACS; format: cell-based, human; settings: UMSCC47, 10 μM, 24 hours, vs vehicle
# Protocol: as §1
# [9] = system: total and acetylated p53 in UMSCC47 cells; assay: Western blot of total and acetylated[K382] p53; format: cell-based, human; settings: 24 hours; for p53 accumulation and acetylated p53 levels: UMSCC47, 10 μM
# Protocol: (§3) Whole cell lysates were mixed with Laemmli loading buffer, boiled, separated by SDS-PAGE, and transferred to a nitrocellulose membrane. Subsequently, immunoblot analyses were performed using antibodies specific to V5 (Invitrogen), p53 (sc-126, Santa Cruz Biotechnology, Santa Cruz, Calif.), or acetylated[[…]]-p53 (2525, Cell Signaling Technology). The signal was developed using the SuperSignal Western Blotting Kit (Pierce, Rockford, Ill.).
# [10] = system: total and acetylated p53 in UMSCC74A cells; assay: Western blot of total and acetylated[K382] p53; format: cell-based, human; settings: 10 μM, 24 hours
# Protocol: as §3
# [11] = system: p53 transcriptional activity in UMSCC47 cells; assay: p53 transcriptional activity, Cignal p53 luciferase reporter; format: cell-based, human; settings: 24 hours; for p53 activity, increase: vs vehicle
# Protocol: Cells were transfected with 100 ng of Cignal p53 reporter (SABiosciences, Valencia, Calif.) using Lipofectamine 2000. Cignal p53 reporter contains tandem repeats of the p53 consensus transcriptional response element. After 48 hours, cells were washed with cold PBS, lysed in passive lysis buffer (Promega), and measured for Firefly/Renilla dual luciferase activities in a luminometer using the Dual-Light System (Applied Biosystems, Foster City, Calif.). […] to control for transfection efficiency. A modification to the protocol was used for compound treatment. UMSCC47 cells were transfected with 100 ng of Cignal p53 reporter. After 24 hours, cells were treated with vehicle, CH1iB (10 μM), cis-platinum (10 μM), or combination of CH1iB (10 μM) and cis-platinum (10 μM) and measured for Firefly/Renilla dual luciferase activities 24 hours post-treatment.
# [12] = system: p53 transcriptional activity in UMSCC74A cells; assay: as above; format: cell-based, human; settings: HPV-negative UMSCC74A, 10 μM, 24 hours
# [13] = UMSCC47, CH1iB 10 μM and cis-platinum 10 μM
# [14] = HPV-positive UMSCC47 cells, 10 μM
Substance,"efficacy of cis-platinum on proliferation, combination [1]","cell proliferation, single-agent [1]","cell proliferation, single-agent (UMSCC74A cells)","efficacy of cis-platinum on proliferation, combination (UMSCC74A cells)","cell proliferation, single-agent (UMSCC47 cells [2])","cell proliferation, in combination with cis-platinum (UMSCC47 cells [2])","tumorsphere formation, reduction (UMSCC47 cells [3])",association between E6 and p300 [4],"clonogenic survival, reduction (inhibition) (UMSCC47 cells [5])","expression of p300, p53, and p53-regulated genes [6]","p21, miR-34a, and miR-200c expression [7]","apoptosis, enhancement (UMSCC47 cells [8])",p53 accumulation and acetylated p53 levels [9],"effect of cis-platinum on p53 accumulation and acetylation, combination [9, 13]",p53 levels [10],"p53 activity, increase [11, 14]","effect of cis-platinum on p53 activity, combination [11, 13]",p53 activity [12],"p53 activity [11, 14]"
XELA*RALDQ-NH2 (ELXRALDQ; not fully specified; hydrogen bond surrogate crosslink; C-terminal amide; CH1iB) [hydrogen bond surrogate helix mimic of HIF-1α targeting site B of p300 CH1],did not augment,had no effect,had no effect,did not augment,inhibited,potentiated the anti-proliferative efficacy of cis-platinum,20%,reduced,35%,unchanged,modest but significant increase,353%,enhanced,potentiated the effect of cis-platinum,did not modulate,71%,potentiated the effect of cis-platinum,did not modulate,
"XTAA*DCEYNAR (TAXDCEYNAR; not fully specified; hydrogen bond surrogate crosslink; CH1iA) [hydrogen bond surrogate stabilized α-helical mimic of HIF-1α targeting site A of p300 CH1, reference compound]",did not augment,had no effect,had no effect,did not augment,inactive,,,not,,unchanged,,,had no effect,,did not modulate,,,did not modulate,had no effect
XELA*RAADQ-NH2 (ELXRAADQ; not fully specified; hydrogen bond surrogate crosslink; C-terminal amide; CH1iB-MUT) [specificity control for CH1iB in which one leucine residue is mutated to alanine],,,,,no effect,no effect,,,,,,,,,,14%,,,
